Experimental data taken from patent publication US6613956B1, “PI 3-kinase fusion mutants and uses thereof” (Chiron Corporation, priority 1996, dated 2003).

Key:
Akt = target: T1, Akt (Mus musculus, UniProt P31750); experiment: In vitro protein kinase assay of immobilized Akt preincubated with phospholipid vesicles, histone H2B as substrate; assay type: biochemical; conditions: for increases Akt activity: summary statement for the three PI 3-kinase products; for stimulation of Akt: p110*-generated PI3,4P2 in PC vesicles, relative to unstimulated Akt
T1 construct: made in house; host or cells: COS-7 cells (transient transfection, anti-HA 12CA5 immunoprecipitation on Protein A-Sepharose)

Akt RC25 = target: T2, Akt RC25 (Homo sapiens, UniProt P31749, R25C); experiment: In vitro kinase assay of PH domain point mutant Akt RC25 with PI3,4P2 vesicles; assay type: biochemical; conditions: vesicles generated with p110*
T2 construct: made in house; host or cells: COS-7 cells (transient transfection, anti-HA 12CA5 immunoprecipitation on Protein A-Sepharose)
Text: We determined that the PH domain at the Akt N-terminus is essential for PI3,4P2 mediated stimulation. It has previously been reported that the stimulation of the kinase activity of Akt by PI 3-kinase in vivo is dependent on the PH domain at its immediate N-terminus. We determined that PI3,4P2 mediates its stimulatory effect on Akt through its PH domain by introducing a point mutation in the PH domain of Akt (Akt RC25) which abrogates PI 3-kinase-mediated Akt activation in vivo. A kinase-deficient Akt, Akt KA179, was tested as an additional control. We incubated Akt, Akt RC25 and Akt KA179 proteins with PI3,4P2 in phospholipid vesicles using p110* as described above. […] The kinase-deficient Akt KA179 had no detectable enzymatic activity.
The assay for the in vitro protein kinase activity of Akt was conducted with immobilized Akt that was preincubated with or without mixed phospholipid vesicles (20 μl) for 10 min and subjected to an in vitro protein kinase assay using histone H2B (Boehringer Mannheim) as a substrate. […] The reactions were stopped by the addition of 8 μl Lammli-sample buffer and 22 μi of each reaction mixture were analyzed by 16% SDS-PAGE. The relative amounts of incorporated radioactivity were visualized by autoradiography and quantitated using a Molecular Imager System (BioRad).

T1 sequence (P31750 whole entry): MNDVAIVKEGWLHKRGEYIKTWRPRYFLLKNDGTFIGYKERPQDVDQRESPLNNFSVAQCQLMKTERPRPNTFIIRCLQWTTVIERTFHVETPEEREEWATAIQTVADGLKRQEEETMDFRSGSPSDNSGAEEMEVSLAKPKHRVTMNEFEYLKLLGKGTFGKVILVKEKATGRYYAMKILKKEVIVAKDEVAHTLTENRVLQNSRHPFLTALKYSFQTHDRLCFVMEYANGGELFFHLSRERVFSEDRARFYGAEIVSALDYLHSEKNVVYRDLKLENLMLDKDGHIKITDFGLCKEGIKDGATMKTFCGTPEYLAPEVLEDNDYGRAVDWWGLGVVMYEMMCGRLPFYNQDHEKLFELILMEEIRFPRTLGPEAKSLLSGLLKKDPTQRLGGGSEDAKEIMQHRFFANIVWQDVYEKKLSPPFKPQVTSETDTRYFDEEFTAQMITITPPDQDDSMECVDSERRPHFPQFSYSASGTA
T2 sequence (P31749 whole entry R25C, the tested form may be a part): as the sequence (P31750 whole entry) above, with N2S, R25C, S50A, A100T, R112K, T117E, T389K, N410G, D415H counted along it

Row | Substance | increases Akt activity (Akt) | stimulation of Akt kinase activity (Akt; vesicles containing synthetic PI3P, any conditions) | Akt activation (Akt; PE/PS vesicles) | stimulation of Akt (Akt; 4 μM) [fold] | stimulation of Akt (Akt; average) [fold] | Akt activation (Akt; presence of PS in the PI3,4P2/PC vesicles) | Akt activation (Akt; synthetic PI3,4P2 in either PE or PS vesicles) | further increase in Akt activation (Akt; synthetic dipalmitoyl derivatives of PI3,4P2, 260 nM to 1.3 μM) | increase in kinase activity of Akt (Akt; synthetic dipalmitoylated PI3,4P2 in PC vesicles) | activation of Akt by PI3,4P2 containing vesicles (Akt; wild-type Akt, vesicles generated with p110*) | activation of Akt RC25 by PI3,4P2 containing vesicles (Akt RC25)
1 | PI 3-phosphate [PI3P] | not | No stimulation |  |  |  |  |  |  |  |  | 
2 | phosphatidylinositol 3,4 bisphosphate [PI3,4P2] | increases Akt activity |  | did not allow activation of Akt | 9 | 3 | interfered with Akt activation | No activation | No further increase | approximately 2.5 fold | efficiently activated | not activated
